# According to patent US20040043403A1, “Process for determining the biological activity of epidermal growth factor receptor tyrosine kinase inhibitors” (priority 2000, published 2004):
# What was measured:
# [1] = test system: WBC; experiment: Real time RT-PCR gene expression in White Blood Cells; assay type: cell-based, human; settings: 3 μM, 24 h
# Procedure: The leucocyte-enriched fraction (buffy coat) is obtained from a healthy donor. 10 ml buffy coat, diluted with 25 ml RPMI 1640 medium is layered on 4 ml Ficoll-Paque (Pharmacia) and centrifuged at 1′200×g for 15 min. The White Blood Cell (WBC) layer at the interface is removed, the cells are washed 2 times with RPMI 1640 medium to remove platelets. WBCs are cultured in RPMI 1640 medium plus 10% Fetal Calf Serum (FCS) in T-150 flask, 100 million cells/100 ml and are incubated for 1 h at 37° C. before treatment. 20 million tissue culture cells (about 80% confluent) or 200 million WBCs are incubated for 2 or 24 h in culture medium containing 3 μM of an EGFR tyrosine kinase inhibitor or 0.03% DMSO. Total RNA from cell pellet is isolated using the RNeasy kit (Qiagen). mRNA is isolated using the oligotex mRNA purification kit (Qiagen). The quality of the obtained mRNA is tested by real time RT-PCR using beta-Actin primers (PE Applied Biosystems) with an amplicon size of 300 base pairs (bp). The total RNA is used as a reference to calculate the amount of mRNA-enrichment in the oligotex purified samples. The primers and probes are designed from mRNA sequences within the coding region or in the 3′ untranslated region (Table 2). For real time RT-PCR, RNA concentrations between 1 and 50 ng/reaction are used to obtain signals between 15-35 cycles. For each RNA preparation RT-PCR reactions are performed with and without reverse transcriptase to check for genomic DNA contamination. In all RNA samples tested, genomic DNA contamination is less than 1%. To normalize for variability in the initial concentration and quality of the total RNA, Glyceraldehyde-3-phosphate dehydrogenase (GAPDH) is used as an endogenous reference in all quantification experiments. For RT-PCR a one step, two-enzyme system is chosen. The TaqMan PCR Core Reagent Kit (PE #N808-0228) plus the reverse transcriptase MuLV (PE Biosystems # N808-0018) and RNase inhibitor (Roche Diagnostics # 799 025) are mixed as described in the manufacturers protocol. Triplicate measurements are done for target and for reference reactions. […] RT-PCR reactions are done with RNA concentrations of 2.5, 5, 10, 20, 40 and 80 ng per reaction. The absolute value of the slope of (log input amount) vs. ΔCT should be <0.1. The ΔCT value is determined by subtracting the average reference CT values from the average target CT values of the three measurements. Relative quantification is performed in triplicates, reference and target, using the RT-PCR protocol described above. […] Expression levels for the three genes, calculated relative to NCI-H520, show big differences between the various cell types (Table 5). […]
# [2] = test system: MDA-MB468; experiment: Western blot of clusterin induction in MDA-MB468 cells; assay type: cell-based, human; settings: MDA-MB468 cells (high levels of EGFR), 300 nM, 24 h, vs 0.03% DMSO
# Procedure: (§1) An EGFR tyrosine kinase inhibitor is dissolved in DMSO to obtain a 10 mM stock solution. The stock solution is further diluted in culture medium to final concentrations of 10 nM to 3 μM. 3.5 million cells/100 mm dish/12 ml culture medium are incubated for 24 h in 5% CO2 at 37° C. The medium is replaced with medium containing the EGFR tyrosine kinase inhibitor or DMSO. Cells are incubated for 4 to 32 h. The frozen pellets are lysed in 500 μl of lysis buffer (50 mM Tris-HCl pH 7.5, 1% Sodium Dodecyl Sulfate (SDS)). To shear genomic DNA, the cell lysates are processed in a FastPrep instrument for 20 sec at a speed rating of 4, using the green […] tubes (Bio101#6040-6010). Protein concentrations are determined according to the PIERCE-method (BCA Protein Assay, Reagent A and B). Protein concentration of lysates is adjusted to 1 μg/μl with lysis buffer. 4 parts of cell lysates are mixed with 1 part of 5 fold concentrated Laemmli buffer, the lysates are stored at -20° C. 40 μl of cell lysate is heated for 3 min to 95° C. and directly loaded on to 10% or 15% SDS-PAGE gels. The gels are run at 130 V for 90 min under standard conditions. The separated proteins are semi-dry blotted on to a PVDF membrane (Immobilon-P, Millipore #IPVH 202 00) for 70 min with 45 mA per blot. […]
# [3] = test system: NCI-H596; experiment: Western blot of clusterin induction in NCI-H596 cells; assay type: cell-based, human; settings: NCI-H596 cells (moderate levels of EGFR), 300 nM, 24 h, vs 0.03% DMSO
# Procedure: as §1
# [4] = target: EGFR tyrosine kinase (Homo sapiens, UniProt P00533); settings: disclosed in WO 97/02266; cited from earlier work
# Sequence of EGFR tyrosine kinase (P00533 669-1210 limits assumed): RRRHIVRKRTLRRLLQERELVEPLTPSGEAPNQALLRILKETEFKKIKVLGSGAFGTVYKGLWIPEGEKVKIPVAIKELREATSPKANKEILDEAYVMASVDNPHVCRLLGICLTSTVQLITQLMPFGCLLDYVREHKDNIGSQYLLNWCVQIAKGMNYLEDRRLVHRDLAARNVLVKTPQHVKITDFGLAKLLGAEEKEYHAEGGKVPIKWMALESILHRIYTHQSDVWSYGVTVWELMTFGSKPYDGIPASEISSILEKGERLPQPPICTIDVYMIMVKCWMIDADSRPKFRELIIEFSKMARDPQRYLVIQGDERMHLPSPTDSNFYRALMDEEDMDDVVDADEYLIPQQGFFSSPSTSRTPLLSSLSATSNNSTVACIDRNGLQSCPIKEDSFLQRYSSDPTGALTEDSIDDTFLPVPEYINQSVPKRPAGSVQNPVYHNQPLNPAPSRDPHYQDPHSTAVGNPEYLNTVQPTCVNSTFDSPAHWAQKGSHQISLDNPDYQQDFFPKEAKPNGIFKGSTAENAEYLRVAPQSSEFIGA
# [5] = test system: Epidermal Growth Factor (EGF)-responsive tumors; settings: disclosed in WO 97/02266; cited from earlier work
# [6] = WBC, relative to DMSO-treated NCI-H520 calibrator
smiles,measurement,setting,value
"C[C@@H](Nc1ncnc2[nH]c(-c3ccc(O)cc3)cc12)c1ccccc1 [COMPOUND A, (R)-6-(4-hydroxy-phenyl)-4-[(1-phenyl-ethyl)-amino]-7H-pyrrolo[2,3-d]pyrimidine]",Relative Clusterin expression,[1]; [6],2.03 n-fold
same,Relative TRAIL expression,[1]; [6],22.73 n-fold
same,Relative VAC-beta expression,[1]; [6],2.16 n-fold
same,TRAIL repression in WBCs,"[1]; WBCs, versus DMSO",2.5 fold
same,"Clusterin induction, Western blot (FIG. 4)",[2],strong clusterin expression signals
same,"Clusterin induction, Western blot (FIG. 4)",[3],no significant clusterin induction
same,Inhibition of the EGFR tyrosine kinase,[4],potent and selective inhibitor
same,Anti-proliferative activity against EGF-responsive tumors,[5],exhibits anti-proliferative activity
